US7150969B2 (Rosetta Inpharmatics LLC, priority 2004, dated 2006)

Legend:
ACC2sv1 = biological target: T1, ACC2sv1 (Homo sapiens, UniProt O00763, V2141I); experiment: 14CO2 fixation ACC activity assay, ACC2sv1; format: biochemical; details: 37° C., 40 minutes, pH 7.5, 20 mM citrate; read-out: Km of ACC2sv1 against substrate
T1 construct: to yield a full-length ACC2sv1 clone; made in house; host or cells: mouse mammary carcinoma cell line FM-3A (pEF vector, G418 selection)
Description: (§1) ACC2 and ACC2sv1 clones from cloning Method 2 of Example 2 were digested with AvrII and PmeI restriction enzymes and then subcloned into pEF cDNA expression vector (Invitrogen, Carlsbad, Calif.) which was digested by SpeI and EcoRV. The ACC2 and ACC2sv1 expression vectors were introduced into a mouse mammary carcinoma cell line FM-3A (RIKEN cell bank, #RCB0086) using the Lipofectaimine 2000 (Invitrogen, Carlsbad, Calif.) or Effectene Transfection Reagent (Qiagen, Hilden, Germany), according to manufacturer's instructions. […] ACC2 and ACC2sv1 protein levels were measured by Western blot analysis using HRP-conjugated streptavidin (Invitrogen, Carlsbad, Calif.). […]
(§2) The following protein extraction and purification procedures were performed at 4° C. unless noted. […] The remaining proteins were eluted from the column by imidazole at 0–500 mM, and the elution fractions were monitored by spectrophotometry at 280 nm. ACC1, ACC2, and ACC2sv1 protein and activity in each fraction were measured.
(§3) ACC1, ACC2, and ACC2sv1 activity were measured by a standard ^14CO2 fixation assay that measures the incorporation of [^14C]bicarbonate into [^14C]malonyl-CoA, and separates the product from unused substrate at the end of the reaction through acidification, which serves to both quench the reaction and remove residual radiolabeled substrate as ^14CO2. […]

ACC1 [1] = biological target: T2, ACC1 (Homo sapiens, UniProt Q13085); experiment: 14CO2 fixation ACC activity assay, ACC1; format: biochemical; details: 37° C., 40 minutes, pH 7.5, 20 mM citrate; read-out: Km of ACC1 against substrate
T2 construct: to produce a full length ACC1 cDNA clone; V5-His (vector pcDNA5/FRT/V5-His TOPO) (C); made in house; host or cells: Sf9 insect cells (baculovirus, pBacPAK9)
Experimental: ACC1 clone from Example 2 was digested with AvrII and PmeI restriction enzymes and then subcloned into pBacPAK9 (BD Biosciences, Mountainview, Calif.) transfer vector, which was then digested with XbaI and StuI for generating baculovirus. The viral particles were generated in Sf9 insect cells using the reagents and instructions provided by the BacPAK Baculovirus Expression System (BD Biosciences, Mountainview, Calif.).
The Sf9 cells were grown in Grace's Insect Cell Culture Medium (Invitrogen, Carlsbad, Calif.) containing 10% fetal bovine serum, 0.1 mg/ml kanamicin, and 0.1% PLURONIC® F-68 (Invitrogen, Carlsbad, Calif.) at 30° C. and 5% CO2. […]
as §2, §3

ACC2 [2] = biological target: T3, ACC2 (Homo sapiens, UniProt O00763); experiment: 14CO2 fixation ACC activity assay, ACC2; format: biochemical; details: 37° C., 40 minutes, pH 7.5, 20 mM citrate; read-out: Km of ACC2 against substrate
T3 construct: V5-His (vector pcDNA5/FRT/V5-His TOPO) (C); made in house; host or cells: mouse mammary carcinoma cell line FM-3A (pEF vector, G418 selection)
T3 sequence (O00763 whole entry): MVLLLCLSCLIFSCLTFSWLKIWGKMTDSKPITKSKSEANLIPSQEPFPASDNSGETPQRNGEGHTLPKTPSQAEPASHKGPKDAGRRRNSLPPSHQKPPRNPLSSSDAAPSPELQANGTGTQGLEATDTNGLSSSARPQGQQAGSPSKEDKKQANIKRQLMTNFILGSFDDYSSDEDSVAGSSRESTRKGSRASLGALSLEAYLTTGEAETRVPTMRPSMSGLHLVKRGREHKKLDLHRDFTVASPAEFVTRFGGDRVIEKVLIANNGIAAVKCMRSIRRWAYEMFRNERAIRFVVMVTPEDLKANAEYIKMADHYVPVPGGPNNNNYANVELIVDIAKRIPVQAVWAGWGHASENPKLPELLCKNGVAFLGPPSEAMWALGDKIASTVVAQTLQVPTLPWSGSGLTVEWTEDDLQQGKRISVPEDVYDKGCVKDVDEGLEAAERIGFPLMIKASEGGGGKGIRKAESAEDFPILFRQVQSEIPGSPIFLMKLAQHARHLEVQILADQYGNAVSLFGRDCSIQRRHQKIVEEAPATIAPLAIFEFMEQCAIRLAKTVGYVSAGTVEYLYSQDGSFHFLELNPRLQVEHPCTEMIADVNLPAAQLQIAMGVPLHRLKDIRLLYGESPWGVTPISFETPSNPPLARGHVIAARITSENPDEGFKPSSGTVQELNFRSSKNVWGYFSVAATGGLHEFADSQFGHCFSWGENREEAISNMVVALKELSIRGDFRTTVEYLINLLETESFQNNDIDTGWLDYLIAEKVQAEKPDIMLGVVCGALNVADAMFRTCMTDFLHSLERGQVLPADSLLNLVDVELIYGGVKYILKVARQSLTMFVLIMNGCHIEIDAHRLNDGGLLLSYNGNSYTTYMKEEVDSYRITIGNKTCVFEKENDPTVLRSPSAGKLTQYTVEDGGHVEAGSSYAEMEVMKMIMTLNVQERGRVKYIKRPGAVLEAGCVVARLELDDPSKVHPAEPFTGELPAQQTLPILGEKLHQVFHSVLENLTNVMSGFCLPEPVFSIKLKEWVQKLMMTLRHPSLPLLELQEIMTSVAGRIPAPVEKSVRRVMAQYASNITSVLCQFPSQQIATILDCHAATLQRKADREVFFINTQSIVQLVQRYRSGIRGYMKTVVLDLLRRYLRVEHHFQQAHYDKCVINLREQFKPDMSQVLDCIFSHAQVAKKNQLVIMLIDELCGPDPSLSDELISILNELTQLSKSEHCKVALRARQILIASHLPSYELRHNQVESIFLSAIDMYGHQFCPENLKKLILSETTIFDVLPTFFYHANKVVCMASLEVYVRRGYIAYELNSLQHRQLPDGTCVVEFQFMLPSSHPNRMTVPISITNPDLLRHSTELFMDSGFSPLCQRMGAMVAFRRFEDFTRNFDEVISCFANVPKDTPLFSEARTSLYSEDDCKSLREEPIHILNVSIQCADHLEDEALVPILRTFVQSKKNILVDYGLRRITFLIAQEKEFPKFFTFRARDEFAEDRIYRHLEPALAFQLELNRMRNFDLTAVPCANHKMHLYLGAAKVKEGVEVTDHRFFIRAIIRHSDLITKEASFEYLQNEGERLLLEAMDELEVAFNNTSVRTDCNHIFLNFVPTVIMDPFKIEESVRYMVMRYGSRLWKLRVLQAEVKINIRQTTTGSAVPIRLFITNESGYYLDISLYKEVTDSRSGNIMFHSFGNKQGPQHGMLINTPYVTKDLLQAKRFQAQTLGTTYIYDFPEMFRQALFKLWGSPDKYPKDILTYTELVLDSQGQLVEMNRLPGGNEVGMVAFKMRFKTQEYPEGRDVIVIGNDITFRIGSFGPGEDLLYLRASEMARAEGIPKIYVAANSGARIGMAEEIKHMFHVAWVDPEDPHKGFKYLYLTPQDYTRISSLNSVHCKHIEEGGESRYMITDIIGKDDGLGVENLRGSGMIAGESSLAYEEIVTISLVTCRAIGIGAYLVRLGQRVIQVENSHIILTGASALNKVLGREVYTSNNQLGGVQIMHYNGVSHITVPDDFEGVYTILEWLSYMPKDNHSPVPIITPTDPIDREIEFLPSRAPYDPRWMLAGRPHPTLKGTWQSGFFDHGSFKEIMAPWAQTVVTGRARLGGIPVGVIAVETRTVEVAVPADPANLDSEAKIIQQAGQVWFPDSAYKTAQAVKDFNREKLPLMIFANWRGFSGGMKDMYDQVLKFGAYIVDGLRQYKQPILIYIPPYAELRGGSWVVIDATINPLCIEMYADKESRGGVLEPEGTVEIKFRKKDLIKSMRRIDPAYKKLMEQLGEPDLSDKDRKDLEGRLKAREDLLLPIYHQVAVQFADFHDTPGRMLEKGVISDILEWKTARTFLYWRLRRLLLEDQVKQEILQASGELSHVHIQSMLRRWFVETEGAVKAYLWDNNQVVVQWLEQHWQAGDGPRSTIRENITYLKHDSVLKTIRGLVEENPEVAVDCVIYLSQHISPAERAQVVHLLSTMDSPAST
Description: as §1, §2, §3

ACCs from plants = details: cited from earlier work
ACC1 [3] = details: cited from earlier work
ACC2 [4] = details: cited from earlier work
ACC = details: ESP 55016 converted to ESP 55016-CoA; cited from earlier work
[5] = system: fatty acid synthesis and fatty acid oxidation; details: cited from earlier work
[6] = rat model of diabetic dyslipidemia; cited from earlier work

T1 sequence (O00763 1-2256 isoform O00763-3 V1939I): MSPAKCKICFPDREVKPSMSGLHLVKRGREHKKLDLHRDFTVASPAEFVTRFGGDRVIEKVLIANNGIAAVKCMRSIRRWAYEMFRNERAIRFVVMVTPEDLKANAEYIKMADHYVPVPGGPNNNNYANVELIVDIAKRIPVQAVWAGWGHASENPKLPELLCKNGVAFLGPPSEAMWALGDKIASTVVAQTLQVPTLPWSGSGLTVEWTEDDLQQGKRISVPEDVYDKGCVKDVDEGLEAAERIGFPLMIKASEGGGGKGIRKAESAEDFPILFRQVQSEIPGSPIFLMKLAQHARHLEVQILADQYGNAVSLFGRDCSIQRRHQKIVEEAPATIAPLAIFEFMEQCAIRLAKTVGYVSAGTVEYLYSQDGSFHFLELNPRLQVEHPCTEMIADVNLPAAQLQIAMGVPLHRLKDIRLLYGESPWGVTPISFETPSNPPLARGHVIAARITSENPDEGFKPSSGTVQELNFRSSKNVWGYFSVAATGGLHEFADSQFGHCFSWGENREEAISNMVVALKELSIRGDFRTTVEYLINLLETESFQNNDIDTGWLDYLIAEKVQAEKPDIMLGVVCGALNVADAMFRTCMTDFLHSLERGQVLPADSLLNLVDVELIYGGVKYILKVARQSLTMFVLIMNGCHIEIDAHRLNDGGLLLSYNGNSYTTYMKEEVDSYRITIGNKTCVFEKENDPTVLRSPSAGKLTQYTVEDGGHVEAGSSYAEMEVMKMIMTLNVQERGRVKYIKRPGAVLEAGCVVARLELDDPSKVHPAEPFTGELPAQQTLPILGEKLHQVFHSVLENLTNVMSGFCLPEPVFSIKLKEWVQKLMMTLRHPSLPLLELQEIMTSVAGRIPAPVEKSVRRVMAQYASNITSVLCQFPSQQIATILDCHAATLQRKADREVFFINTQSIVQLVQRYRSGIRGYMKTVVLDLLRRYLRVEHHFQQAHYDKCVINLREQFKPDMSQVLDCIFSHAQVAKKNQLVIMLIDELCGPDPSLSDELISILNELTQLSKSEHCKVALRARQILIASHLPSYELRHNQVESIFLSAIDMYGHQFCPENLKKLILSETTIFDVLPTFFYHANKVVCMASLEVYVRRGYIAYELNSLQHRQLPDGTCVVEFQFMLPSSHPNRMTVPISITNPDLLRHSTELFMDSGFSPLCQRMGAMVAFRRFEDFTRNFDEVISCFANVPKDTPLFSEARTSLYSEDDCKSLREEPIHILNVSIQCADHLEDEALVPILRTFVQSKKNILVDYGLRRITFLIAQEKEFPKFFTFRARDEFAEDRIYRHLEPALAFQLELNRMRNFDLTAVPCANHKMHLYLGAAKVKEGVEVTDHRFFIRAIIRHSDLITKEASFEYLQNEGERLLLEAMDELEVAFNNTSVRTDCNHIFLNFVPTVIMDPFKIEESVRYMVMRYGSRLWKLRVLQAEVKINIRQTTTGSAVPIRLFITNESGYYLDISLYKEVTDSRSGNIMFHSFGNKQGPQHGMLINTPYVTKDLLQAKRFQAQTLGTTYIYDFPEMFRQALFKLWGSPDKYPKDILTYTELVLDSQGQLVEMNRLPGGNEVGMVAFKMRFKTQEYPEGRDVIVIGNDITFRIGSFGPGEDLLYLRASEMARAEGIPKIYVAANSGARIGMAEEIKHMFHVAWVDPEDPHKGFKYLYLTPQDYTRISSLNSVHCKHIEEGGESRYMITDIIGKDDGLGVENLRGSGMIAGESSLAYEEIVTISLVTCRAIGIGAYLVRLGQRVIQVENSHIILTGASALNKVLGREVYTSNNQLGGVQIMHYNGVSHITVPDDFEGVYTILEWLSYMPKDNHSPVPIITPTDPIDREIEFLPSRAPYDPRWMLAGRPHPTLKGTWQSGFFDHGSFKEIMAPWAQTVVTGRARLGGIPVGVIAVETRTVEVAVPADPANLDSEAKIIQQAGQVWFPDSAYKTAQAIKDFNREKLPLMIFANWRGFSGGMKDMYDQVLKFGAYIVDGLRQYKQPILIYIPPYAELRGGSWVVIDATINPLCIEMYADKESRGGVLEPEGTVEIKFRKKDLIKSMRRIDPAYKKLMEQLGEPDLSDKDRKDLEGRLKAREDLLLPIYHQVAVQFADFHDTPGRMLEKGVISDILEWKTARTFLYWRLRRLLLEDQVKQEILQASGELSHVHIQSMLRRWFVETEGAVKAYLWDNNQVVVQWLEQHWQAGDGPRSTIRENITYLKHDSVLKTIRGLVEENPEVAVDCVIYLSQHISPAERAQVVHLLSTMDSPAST

Nc1ncnc2c1ncn2[C@@H]1O[C@H](COP(=O)(O)OP(=O)(O)OP(=O)(O)O)[C@@H](O)[C@H]1O [ATP]
Km (ACC2sv1): 109 µM
Km (ACC1 [1]): 54 µM
Km (ACC2 [2]): 44 µM

CCC/C(=N\OCC)C1=C(O)CC(CC(C)SCC)CC1=O (centres unmarked) [sethoxydim]
Inhibition of ACCs from plants (ACCs from plants): potent inhibitors

CCN(CC)C(=O)[C@@H]1CCCN(C2CCN(C(=O)c3c4ccccc4cc4ccccc34)CC2)C1 [CP-610431]
Inhibition of ACC1 (ACC1 [3]): inhibit
Inhibition of ACC2 (ACC2 [4]): inhibit

CC(Oc1ccc(Oc2ccc(Cl)cc2Cl)cc1)C(=O)O (centres unmarked) [diclofop]
Inhibition of ACCs from plants (ACCs from plants): potent inhibitors

O=C(c1c2ccccc2cc2ccccc12)N1CCC(N2CCC[C@@H](C(=O)N3CCOCC3)C2)CC1 [CP-640186]
Inhibition of ACC1 (ACC1 [3]): inhibit
Inhibition of ACC2 (ACC2 [4]): inhibit

CC(C)(CCCCCC(O)CCCCCC(C)(C)C(=O)SCCNC(=O)CCNC(=O)[C@H](O)C(C)(C)COP(=O)(O)OP(=O)(O)OC[C@H]1O[C@@H](n2cnc3c(N)ncnc32)[C@H](O)[C@@H]1OP(=O)(O)O)C(=O)O (some centres unmarked) [ESP 55016-CoA]
Inhibition of ACC activity (ACC): directly inhibits

CC(Oc1ccc(Oc2ncc(C(F)(F)F)cc2Cl)cc1)C(=O)O (centres unmarked) [haloxyfop]
Inhibition of ACCs from plants (ACCs from plants): potent inhibitors

O=C(O)O [HCO3]
Km (ACC2sv1): 6510 µM
Km (ACC1 [1]): 6470 µM
Km (ACC2 [2]): 2890 µM

CC(C)(CCCCCC(O)CCCCCC(C)(C)C(=O)O)C(=O)O [ESP 55016]
Fatty acid oxidation [5]: enhanced
Fatty acid synthesis [5]: inhibited
Serum lipid levels [6]: favorably alter
